Laboratory results: PubChem BioAssay (NCI)
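Dose response: 5 concentrations. Exposure: 48 h. Format: 96-well plates. Endpoint: linear interpolation; highest concentration if not reached. The concentration for full growth arrest is given as TGI.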

How the values were obtained:
Test in all cases: NCI anticancer screen, dose series, 48 h
786-0 renal = system: 786-0 renal
A549 NSCLC = system: A549 NSCLC
ACHN renal = system: ACHN renal
CAKI-1 renal = system: CAKI-1 renal
CCRF-CEM leukemia = system: CCRF-CEM leukemia
COLO 205 colon = system: COLO 205 colon
DLD-1 colon = system: DLD-1 colon
DMS 114 small cell lung = system: DMS 114 small cell lung
DMS 273 small cell lung = system: DMS 273 small cell lung
EKVX NSCLC = system: EKVX NSCLC
HCC-2998 colon = system: HCC-2998 colon
HCT-116 colon = system: HCT-116 colon
HCT-15 colon = system: HCT-15 colon
HL-60(TB) leukemia = system: HL-60(TB) leukemia
HOP-62 NSCLC = system: HOP-62 NSCLC
HT29 colon = system: HT29 colon
IGROV1 ovarian = system: IGROV1 ovarian
K-562 leukemia = system: K-562 leukemia
KM12 colon = system: KM12 colon
KM20L2 colon = system: KM20L2 colon
LOX IMVI melanoma = system: LOX IMVI melanoma
LXFL 529 NSCLC = system: LXFL 529 NSCLC
M14 melanoma = system: M14 melanoma
M19-MEL melanoma = system: M19-MEL melanoma
MALME-3M melanoma = system: MALME-3M melanoma
MOLT-4 leukemia = system: MOLT-4 leukemia
NCI-H226 lung = system: NCI-H226 lung
NCI-H23 lung = system: NCI-H23 lung
NCI-H460 lung = system: NCI-H460 lung
NCI-H522 lung = system: NCI-H522 lung
OVCAR-3 ovarian = system: OVCAR-3 ovarian
OVCAR-4 ovarian = system: OVCAR-4 ovarian
OVCAR-5 ovarian = system: OVCAR-5 ovarian
OVCAR-8 ovarian = system: OVCAR-8 ovarian
RPMI-8226 leukemia = system: RPMI-8226 leukemia
RXF 393 renal = system: RXF 393 renal
RXF-631 renal = system: RXF-631 renal
SF-268 CNS = system: SF-268 CNS
SF-295 CNS = system: SF-295 CNS
SF-539 CNS = system: SF-539 CNS
SK-MEL-2 melanoma = system: SK-MEL-2 melanoma
SK-MEL-28 melanoma = system: SK-MEL-28 melanoma
SK-OV-3 ovarian = system: SK-OV-3 ovarian
SN12C renal = system: SN12C renal
SNB-19 CNS = system: SNB-19 CNS
SNB-75 CNS = system: SNB-75 CNS
SR leukemia = system: SR leukemia
SW-620 colon = system: SW-620 colon
TK-10 renal = system: TK-10 renal
U251 CNS = system: U251 CNS
UACC-257 melanoma = system: UACC-257 melanoma
UACC-62 melanoma = system: UACC-62 melanoma
UO-31 renal = system: UO-31 renal
XF 498 CNS = system: XF 498 CNS
A498 renal = system: A498 renal
HOP-92 NSCLC = system: HOP-92 NSCLC
SK-MEL-5 melanoma = system: SK-MEL-5 melanoma

Measured: TGI

CC(=O)COC(=O)CC(C)=O
not listed: A498 renal | HOP-92 NSCLC | SK-MEL-5 melanoma
> 100 µM: all other assays above

CC(=O)N(C(C)=O)c1c(N)n(C)c(=O)[nH]c1=O
not listed: HOP-62 NSCLC | NCI-H522 lung | SK-OV-3 ovarian | SNB-75 CNS | SR leukemia | TK-10 renal | U251 CNS
> 100 µM: all other assays above
